Source: ChEMBL document CHEMBL6103552, “Identification of peptide-based hepatitis B virus capsid inhibitors based on the viral core protein” (Bioorg Med Chem Lett, 2025)
Active and inactive are the calls of the source. Unless noted, no cut-off for these calls is given here. Residues, ends and D or L forms follow the SMILES beside them.

Legend:
Type in all cases: subcellular
[1] = target: Core antigen (Hepatitis B virus) (UniProt Q03732); experiment: Inhibition of Hepatitis B virus capsid formation at 100 uM treated during cell-free wild type HBV Cp synthesis using wheat germ lysates and HBV Cp RNA by Native capsid assay based western blot analysis
Chain of Core antigen (Hepatitis B virus) (Q03732 as listed by the source): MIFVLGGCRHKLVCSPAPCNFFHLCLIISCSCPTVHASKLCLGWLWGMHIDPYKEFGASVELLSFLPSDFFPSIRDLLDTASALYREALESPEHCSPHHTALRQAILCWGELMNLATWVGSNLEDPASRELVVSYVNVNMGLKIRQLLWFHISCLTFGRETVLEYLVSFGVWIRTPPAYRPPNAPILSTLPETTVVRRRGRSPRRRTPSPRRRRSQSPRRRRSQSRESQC

[2] = target: Core antigen (Hepatitis B virus, UniProt Q03732); experiment: Inhibition of Hepatitis B virus capsid formation treated during cell-free wild type HBV Cp synthesis using wheat germ lysates and HBV Cp RNA by Denatured capsid assay based western blot analysis
Chain of Core antigen (Q03732 whole entry): as the sequence (Q03732 as listed by the source) above

[3] = target: Core antigen (Hepatitis B virus) (UniProt Q03732); experiment: Inhibition of Hepatitis B virus capsid formation at 100 uM treated during cell-free HBV Cp T33N mutant synthesis using wheat germ lysates and HBV Cp RNA by Denatured capsid assay based western blot analysis
[4] = target: Core antigen (Hepatitis B virus) (UniProt Q03732); experiment: Inhibition of Hepatitis B virus capsid formation at 10 uM treated during cell-free HBV Cp T33N mutant synthesis using wheat germ lysates and HBV Cp RNA by Denatured capsid assay based western blot analysis
[5] = target: Core antigen (Hepatitis B virus) (UniProt Q03732); experiment: Inhibition of Hepatitis B virus capsid formation at 3 uM treated during cell-free wild type HBV Cp synthesis using wheat germ lysates and HBV Cp RNA by Native capsid assay based western blot analysis

**Q.** `CC[C@H](C)[C@H](NC(=O)[C@H](Cc1c[nH]cn1)NC(=O)[C@H](Cc1ccccc1)NC(=O)[C@H](Cc1c[nH]c2ccccc12)NC(=O)[C@H](CC(C)C)NC(=O)[C@H](CC(C)C)NC(=O)[C@H](CCC(N)=O)NC(=O)[C@H](CCCNC(=N)N)NC(=O)[C@H](Cc1ccccc1)NC(=O)[C@H](CCCCN)NC(=O)[C@H](CC(C)C)NC(=O)CNC(=O)[C@H](CCSC)NC(=O)[C@H](CC(N)=O)NC(=O)[C@@H](NC(C)=O)C(C)C)C(N)=O` was tested. Which inhibition [1] did it give?
**A.** The inhibition was “Active; Significantly Inhibited Hbv-Capsid Formation Of 72 Peptides Tested”.

**Q.** And the IC50 [2]?
**A.** Its IC50 is 97.8 µM.

**Q.** What about the inhibition [3] of the same molecule?
**A.** The inhibition was “Active; Comparable Activity To Gls4, Positive Control”.

**Q.** What about the inhibition [4] of the same molecule?
**A.** The inhibition was “Active; Same Efficacy As Gls4 Observed”.

**Q.** How did the inhibition [5] turn out when `CCOC(=O)C1=C(CN2CCOCC2)NC(c2nccs2)=NC1c1ccc(F)cc1Br` (stereo unspecified) was run?
**A.** Its inhibition is “Active”.

**Q.** Which results are given for `CC[C@H](C)[C@H](NC(=O)[C@H](Cc1c[nH]cn1)NC(=O)[C@H](Cc1ccccc1)NC(=O)[C@H](Cc1c[nH]c2ccccc12)NC(=O)[C@H](CC(C)C)NC(=O)[C@H](CC(C)C)NC(=O)[C@H](CCC(N)=O)NC(=O)[C@H](CCCNC(=N)N)NC(=O)[C@H](Cc1ccccc1)NC(=O)[C@H](CCCCN)NC(C)=O)C(=O)N[C@@H](CO)C(=O)N[C@@H](CS)C(=O)N[C@@H](CC(C)C)C(=O)N[C@H](C(=O)N[C@@H](Cc1ccccc1)C(N)=O)[C@@H](C)O` (Ac-KFRQLLWFHISCLTF-NH2)?
**A.** inhibition [1]: Active; Significantly Inhibited Hbv-Capsid Formation Of 72 Peptides Tested; IC50 [2]: 43.7 µM; inhibition [3]: Active; Comparable Activity To Gls4, Positive Control; inhibition [4]: Active; Greater Efficacy Compared To Gls4 Observed

**Q.** How did the inhibition [1] turn out when `CC(C)[C@H](NC(=O)[C@@H](NC(=O)[C@@H](NC(=O)[C@@H](N)[C@@H](C)O)[C@@H](C)O)C(C)C)C(=O)N[C@@H](CCCNC(=N)N)C(=O)N[C@@H](CCCNC(=N)N)C(=O)N[C@@H](CCCNC(=N)N)C(=O)NCC(=O)N[C@@H](CCCNC(=N)N)C(=O)N[C@@H](CO)C(=O)N1CCC[C@H]1C(=O)N[C@@H](CCCNC(=N)N)C(=O)N[C@@H](CCCNC(=N)N)C(=O)N[C@@H](CCCNC(=N)N)C(=O)N[C@H](C(N)=O)[C@@H](C)O` (H-TTVVRRRGRSPRRRT-NH2) was run?
**A.** Its inhibition is “inactive”.

**Q.** `CSCC[C@H](NC(=O)[C@H](CC(N)=O)NC(=O)[C@@H](NC(=O)[C@H](CC(N)=O)NC(=O)[C@@H](NC(=O)[C@H](Cc1ccc(O)cc1)NC(=O)[C@H](CO)NC(=O)[C@@H](N)C(C)C)C(C)C)C(C)C)C(=O)NCC(=O)N[C@@H](CC(C)C)C(=O)N[C@@H](CCCCN)C(=O)N[C@@H](Cc1ccccc1)C(=O)N[C@@H](CCCNC(=N)N)C(=O)N[C@@H](CCC(N)=O)C(=O)N[C@@H](CC(C)C)C(N)=O` (H-VSYVNVNMGLKFRQL-NH2) was tested. Which inhibition [1] did it give?
**A.** Its inhibition is “inactive”.
